In US11267831B2, “EF-Tu-binding metal-containing antibiotic” (Ruhr-Universitaet Bochum, priority 2017, dated 2022):

Tested on: B. subtilis
Assay: Proteome analysis via 2D-PAGE with 35S-methionine labelling of newly synthesized proteins
Assay type: cell-based, Bacillus subtilis
Details: 3 μg/ml DS50, 0.15 μg/ml nocathiacin I, 8 μg/ml GE2270 A or 50 μg/ml kirromycin, 15 min
Procedure: B. subtilis was grown to an OD500 of 0.35 in BMM and treated with 3 μg/ml DS50 or 12 μg/ml biotin-DS50 for 15 min or left untreated as control. The following concentrations were used for the reference antibiotics: 0.15 μg/ml nocathiacin I, 8 μg/ml GE2270 A or 50 μg/ml kirromycin. Radioactive labelling of newly synthesized proteins during antibiotic treatment with ^35S-methionine and 2D-PAGE analysis were essentially performed as described^38.
Protein spots were cut out of the gel and decolorized twice in a washing solution (20 mM ammonium bicarbonate, 30% acetonitrile). Disulfide bridges in proteins from gel pieces obtained from 1D-PAGE gels were reduced with 10 mM DTT in wash solution at 60° C. for 45 min. Cysteine alkylation was then performed with 50 mM iodoacetamide (IAA) in a washing solution for 25 min at room temperature in the dark. The gel pieces were washed twice with washing solution for 5 min at room temperature. The reduction and alkylation steps were omitted for samples from 2D-PAGE experiments. […] Gradient for identification of proteins from 1D-PAGE: initial, 0.5% eluant B (0.1% formic acid (FA) in acetonitrile); 1 min, 0.5% eluant B; 45 min, 60% eluant B; 48 min, 90% eluant B; 49 min, 99% eluant B; 51 min, 99% eluant B; 52 min, 0.5% eluant B; 60 min, 0.5% eluant B. 0.1% FA in water served as eluent A. Gradient for the identification of proteins from 2D-PAGE: initial, 0.5% eluent B; 22 min, 50% eluent B; 23 min, 99% eluent B; 26 min, 99% eluent B; 27 min, 0.5% eluent B; 30 min, 0.5% eluent B. Continuous MS^E spectra were recorded in a mass range of 50-1200 m/z and with a scanning time of […] in positive resolution mode with the following settings: Capillary voltage, 1.7 kV; cone voltage, 30 V; source temperature, 100° C.; cone gas flow, 50 l/h; desolvation gas flow, 500 l/h; desolvation temperature, 150° C. […] For protein identification, a database with 4180 proteins of B. subtilis was used (NCBI reference sequence: NC_000964.3, manually added: trypsin, keratin, quantification standard PhosB). […]

| Molecule | protein biosynthesis compared to control conditions |
| --- | --- |
| CNC(=O)C[C@@H]1NC(=O)c2csc(n2)-c2ccc(-c3nc(C4=N[C@H](C(=O)N5CCC[C@H]5C(N)=O)CO4)cs3)nc2-c2csc(n2)-c2csc(n2)[C@H]([C@@H](O)c2ccccc2)NC(=O)CNC(=O)c2nc(sc2COC)[C@H](C(C)C)NC(=O)c2nc1sc2C [GE2270 A] | −65% |
| kirromycin | not affected |
| C=C(NC(=O)c1csc(-c2nc3c(cc2O)-c2nc(cs2)C(=O)N[C@@H]([C@@H](C)O)C(=O)N/C(=C(\C)OC)c2nc(cs2)C(=O)N[C@@H]2c4nc(cs4)C(=O)N[C@@H](COC(=O)c4c5c6c(cccc6n4O)COC(=O)[C@@H](O[C@H]4C[C@](C)(O)[C@H](N(C)C)[C@H](C)O4)[C@H]2OC5)c2nc-3cs2)n1)C(N)=O.O=C(O)C(F)(F)F [nocathiacin I] | −15% |
